Measured values reported in article PMC3956377, “Rapid kill of malaria parasites by artemisinin and semi-synthetic endoperoxides involves ROS-dependent depolarization of the membrane potential” (Journal of Antimicrobial Chemotherapy, 2013).

How the values were obtained:
Format in all cases: biochemical
[1] = biological target: T1, PfNDH2 (Plasmodium falciparum, UniProt Q8I302); test: spectrophotometric NADH:quinone oxidoreductase assay ([…] and […] nm); settings: read-out: Percentage inhibition / PfNDH2
T1 construct: gene PF3D7_0915000; recombinant, heterologously expressed; Escherichia coli crude membrane preparation
T1 sequence (Q8I302 34-533): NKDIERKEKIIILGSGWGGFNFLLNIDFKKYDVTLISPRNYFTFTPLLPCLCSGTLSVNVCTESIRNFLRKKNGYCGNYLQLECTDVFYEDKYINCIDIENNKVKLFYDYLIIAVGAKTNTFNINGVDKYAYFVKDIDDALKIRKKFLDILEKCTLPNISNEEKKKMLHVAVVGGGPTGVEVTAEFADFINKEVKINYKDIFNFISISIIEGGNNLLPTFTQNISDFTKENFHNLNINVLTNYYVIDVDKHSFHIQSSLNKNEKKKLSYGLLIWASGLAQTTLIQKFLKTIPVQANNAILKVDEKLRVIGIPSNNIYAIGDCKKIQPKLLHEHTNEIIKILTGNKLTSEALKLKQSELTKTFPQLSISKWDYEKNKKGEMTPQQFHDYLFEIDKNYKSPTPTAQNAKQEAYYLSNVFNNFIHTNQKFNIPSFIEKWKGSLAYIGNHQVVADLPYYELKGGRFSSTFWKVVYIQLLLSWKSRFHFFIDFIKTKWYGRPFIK

[2] = biological target: T2, complex IV (cytochrome c oxidase) (Plasmodium falciparum, UniProt A0A5K1K9G8); test: spectrophotometric cytochrome c oxidation; settings: read-out: Percentage inhibition / complex IV
T2 construct: gene PF3D7_MIT02100; native complex in cell-free extract of saponin-freed parasites; cytochrome c oxidase activity; with Cytochrome c oxidase subunit 3
T2 sequence (A0A5K1K9G8 1-508): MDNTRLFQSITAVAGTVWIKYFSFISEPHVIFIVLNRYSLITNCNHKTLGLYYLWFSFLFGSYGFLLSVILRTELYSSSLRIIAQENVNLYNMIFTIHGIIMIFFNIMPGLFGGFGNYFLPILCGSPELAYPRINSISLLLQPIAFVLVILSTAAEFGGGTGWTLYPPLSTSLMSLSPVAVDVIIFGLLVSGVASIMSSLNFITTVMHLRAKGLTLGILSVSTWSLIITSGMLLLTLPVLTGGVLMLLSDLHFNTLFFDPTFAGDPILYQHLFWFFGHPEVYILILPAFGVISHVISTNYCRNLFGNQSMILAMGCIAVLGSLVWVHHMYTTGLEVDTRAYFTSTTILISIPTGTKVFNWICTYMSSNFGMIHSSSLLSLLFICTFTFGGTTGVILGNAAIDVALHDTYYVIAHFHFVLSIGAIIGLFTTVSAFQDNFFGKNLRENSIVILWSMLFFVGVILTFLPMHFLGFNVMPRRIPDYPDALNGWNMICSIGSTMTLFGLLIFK
T2 sequence (Q7HP05 1-279 partner): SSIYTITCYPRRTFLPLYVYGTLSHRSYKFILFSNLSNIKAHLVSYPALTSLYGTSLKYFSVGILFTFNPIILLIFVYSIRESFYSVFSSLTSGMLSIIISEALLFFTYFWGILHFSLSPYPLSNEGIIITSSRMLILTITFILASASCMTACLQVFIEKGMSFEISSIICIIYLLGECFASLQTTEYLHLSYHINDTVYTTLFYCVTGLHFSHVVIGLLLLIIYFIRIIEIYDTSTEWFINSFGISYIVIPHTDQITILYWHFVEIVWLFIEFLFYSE

[3] = biological target: T3, bc1 (complex III) (Plasmodium falciparum, UniProt Q7HP03+Q8IL75); test: spectrophotometric cytochrome c reduction ([…]-542 nm); settings: read-out: Percentage inhibition / bc1 (complex III)
T3 construct: gene PF3D7_MIT02300; native complex in cell-free extract of saponin-freed parasites; decylubiquinol:cytochrome c oxidoreductase activity; with Cytochrome c1, heme protein, mitochondrial
T3 sequence (Q7HP03 1-376): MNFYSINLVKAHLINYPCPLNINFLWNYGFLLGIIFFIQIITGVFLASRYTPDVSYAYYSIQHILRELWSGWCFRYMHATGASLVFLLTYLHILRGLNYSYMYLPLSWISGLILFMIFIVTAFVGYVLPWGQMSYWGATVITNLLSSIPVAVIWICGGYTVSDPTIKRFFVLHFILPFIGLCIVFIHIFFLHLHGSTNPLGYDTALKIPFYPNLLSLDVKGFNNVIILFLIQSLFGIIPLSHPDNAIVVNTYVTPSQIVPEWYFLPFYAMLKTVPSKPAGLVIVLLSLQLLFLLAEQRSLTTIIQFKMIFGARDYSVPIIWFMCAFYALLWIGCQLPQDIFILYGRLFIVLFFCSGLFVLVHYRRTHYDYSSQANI
T3 sequence (Q8IL75 31-355): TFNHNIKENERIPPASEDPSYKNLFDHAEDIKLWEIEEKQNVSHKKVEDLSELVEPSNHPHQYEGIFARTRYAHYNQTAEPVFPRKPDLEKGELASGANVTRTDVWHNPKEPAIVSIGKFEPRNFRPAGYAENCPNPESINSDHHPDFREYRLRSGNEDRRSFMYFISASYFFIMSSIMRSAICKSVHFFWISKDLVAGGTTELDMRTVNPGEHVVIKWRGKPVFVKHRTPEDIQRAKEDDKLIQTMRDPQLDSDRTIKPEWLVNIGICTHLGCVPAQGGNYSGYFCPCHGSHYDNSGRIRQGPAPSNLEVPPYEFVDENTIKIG
T3 sequence (Q8I6U9 1-394 partner): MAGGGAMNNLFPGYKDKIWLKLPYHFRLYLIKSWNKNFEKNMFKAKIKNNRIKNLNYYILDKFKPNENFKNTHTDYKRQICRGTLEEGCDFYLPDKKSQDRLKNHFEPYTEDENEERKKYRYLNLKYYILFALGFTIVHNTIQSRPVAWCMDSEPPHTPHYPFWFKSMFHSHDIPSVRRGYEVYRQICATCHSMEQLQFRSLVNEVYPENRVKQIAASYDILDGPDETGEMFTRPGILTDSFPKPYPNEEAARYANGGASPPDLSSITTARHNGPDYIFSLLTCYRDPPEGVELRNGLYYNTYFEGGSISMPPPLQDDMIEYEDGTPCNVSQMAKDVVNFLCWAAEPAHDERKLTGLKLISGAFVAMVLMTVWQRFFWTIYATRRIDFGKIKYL

Work on `C[C@@H]1CC[C@H]2[C@@H](C)C(=O)O[C@@H]3O[C@@]4(C)CC[C@@H]1[C@]32OO4` [Artemisinin] yielded an inhibition at 1 µM [1] of 17.1 ± 4.2%, an inhibition at 1 µM [2] of 18.4 ± 4.3% and an inhibition at 1 µM [3] of 3.2 ± 3.7%.
With `CN1CCN(C2CCN(C(=O)CC3CCC4(CC3)OOC3(OO4)C4CC5CC(C4)CC3C5)CC2)CC1` (stereo not drawn) the inhibition at 1 µM [1] was 12.3 ± 4.9%, the inhibition at 1 µM [2] was 19.1 ± 2% and the inhibition at 1 µM [3] was 23.2 ± 4.2%.
For `C[C@H]1[C@H](OC(=O)CCC(=O)O)O[C@@H]2O[C@@]3(C)CC[C@H]4[C@H](C)CC[C@@H]1[C@@]24OO3` [Artesunate], the inhibition at 1 µM [1] was 3.7 ± 2.9%, the inhibition at 1 µM [2] was 21.1 ± 3.9% and the inhibition at 1 µM [3] was 2.3 ± 0.4%.
With `C[C@@H]1CC[C@H]2[C@@H](C)C(O)O[C@@H]3O[C@@]4(C)CC[C@@H]1[C@]32OO4` (stereo partly drawn) [Dihydroartemisinin] the inhibition at 1 µM [1] was 5 ± 4.3%, the inhibition at 1 µM [2] was 21.1 ± 7.9% and the inhibition at 1 µM [3] was 6.7 ± 4.1%.
Work on `CO[C@H]1O[C@@H]2O[C@@]3(C)CC[C@H]4[C@H](C)CC[C@@H]([C@H]1C)[C@@]24OO3` [Artemether] yielded an inhibition at 1 µM [1] of 4.1 ± 3.3%, an inhibition at 1 µM [2] of 23 ± 2% and an inhibition at 1 µM [3] of 1.8 ± 1.9%.
